According to US12018005B1, “Blarcamesine co-crystals for the manufacture of pharmaceutical dosage form” (EGIS GYÓGYSZERGYÁR ZRT., priority 2023, dated 2024):

Columns and labels:
Assay type in all cases: physicochemical
[1] = crystal structure after wet grinding; settings: subjected to wet grinding
[2] = resistance to oxidative stress; settings: compared with blarcamesine hydrochloric acid salt
[3] = solubility over the relevant pH range; settings: entire relevant pH range

(S)-(−)-blarcamesine hydrochloride, (R)-(+)-blarcamesine hydrochloride, ZnCl2 (1:1:1) co-crystal [ZnCl2 co-crystal]
retention of crystal structure / polymorphic form after wet grinding [1]: retains its crystal structure
resistance to oxidative stress [2]: more resistant to oxidative stress than the hydrochloric acid salt

CN(C)CC1CCOC1(c1ccccc1)c1ccccc1.Cl (racemic) [hydrochloric acid salt, [(2,2-diphenyloxolan-3-yl)methyl]dimethylamine hydrochloride]
retention of crystal structure / polymorphic form after wet grinding [1]: polymorphic form of the hydrochloride salt changes
solubility [3]: extreme solubility
